Test results as given in patent US6737383B1, “Herbicidal oxadiazolidines” (priority 1999, dated 2004).

Experiments:
[1] = tested on: giant foxtail; test: Test B pre/postemergence giant foxtail; type: in vivo, Setaria faberii
Method in brief: (§1)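 Response is a visual 0-to-10 score relative to untreated plants, where 0 means no effect and 10 means complete control, taken twelve to sixteen days after application. Treatments went onto soil at planting and onto foliage of 1- to 4-leaf plants, using a surfactant-containing non-phytotoxic solvent.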

[2] = tested on: winter barley; test: Test E winter barley; type: in vivo, Hordeum vulgare; conditions: Preemergence
[3] = tested on: green foxtail; test: Test E green foxtail; type: in vivo, Setaria viridis; conditions: Preemergence
[4] = tested on: crabgrass; test: Test B pre/postemergence crabgrass; type: in vivo, Digitaria sanguinalis
Method in brief: as §1

[5] = tested on: wild oat; test: Test E wild oat; type: in vivo, Avena fatua; conditions: Preemergence
[6] = tested on: winter wheat; test: Test E winter wheat; type: in vivo, Triticum aestivum; conditions: Preemergence
[7] = tested on: blackgrass; test: Test E blackgrass; type: in vivo, Alopecurus myosuroides; conditions: Preemergence
[8] = tested on: duck salad; test: Test B flood test duck salad; type: in vivo, Heteranthera limosa
Method in brief: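 Plants were grown to the 2-leaf stage before treatment with test chemical, then held in a greenhouse for twelve to sixteen days. Injury was visually rated against untreated controls on a 0–10 scale, where 0 is no effect and 10 is complete control.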

[9] = tested on: winter wheat; test: Test E winter wheat; type: in vivo, Triticum aestivum; conditions: Postemergence
Method in brief: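 Postemergence: spray at 1–4 leaf stage, soil 60:40 sandy loam:potting mix; solvent + surfactant formulation; greenhouse 21–28 d; visual injury vs untreated controls.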

[10] = tested on: Italian ryegrass; test: Test E Italian ryegrass; type: in vivo, Lolium multiflorum; conditions: Preemergence
[11] = tested on: wheat; test: Test B pre/postemergence wheat; type: in vivo, Triticum aestivum; conditions: for Wheat plant response rating (0 to 10 scale): 0 is no effect
Method in brief: as §1

[12] = Postemergence, Rate 62 g/ha, scale 0 to 10, 0 is no effect, 10 is complete control
[13] = Postemergence, Rate 125 g/ha, scale of 0 to 10 where 0 is no effect and 10 is complete control
[14] = Postemergence, Rate 250 g/ha, scale 0 to 10, 0 no effect, 10 complete control
[15] = Preemergence, Rate 31 g/ha, visual rating, scale 0 to 10 (0 no effect, 10 complete control)
[16] = Preemergence, Rate 62 g/ha, scale 0 to 10 (0 no effect, 10 complete control)
[17] = Preemergence, Rate 125 g/ha, scale 0 to 10 (0 no effect, 10 complete control)
[18] = Preemergence, Rate 250 g/ha, scale of 0 to 10 where 0 is no effect and 10 is complete control
[19] = Rate 31 g/ha, Postemergence, scale 0 to 10
[20] = Rate 125 g/ha, 0 to 100 scale (0 no effect, 100 complete control)
[21] = Rate 500 g/ha, 0 to 100 scale where 0 is no effect and 100 is complete control
[22] = Rate 500 g/ha, 0 to 100 scale, 0 no effect, 100 complete control
[23] = Preemergence, Rate 125 g/ha, 10 is complete control
[24] = Rate 250 g/ha, Postemergence, scale 0 to 10, 0 is no effect, 10 is complete control
[25] = Preemergence, Rate 62 g/ha, scale of 0 to 10 where 0 is no effect and 10 is complete control
[26] = Preemergence, Rate 125 g/ha, 0 is no effect, 10 is complete control
[27] = Preemergence, Rate 250 g/ha, scale 0 to 10, 0 is no effect, 10 is complete control
[28] = Preemergence, Rate 500 g/ha, scale 0 to 10 (0 no effect, 10 complete control)
[29] = Rate 62 g/ha, Postemergence, scale of 0 to 10 where 0 is no effect and 10 is complete control
[30] = Rate 500 g/ha, Postemergence, scale 0 to 10
[31] = Rate 1000 g/ha, 0 to 100 scale where 0 is no effect and 100 is complete control

CC(C)N(C(=O)n1oc(=O)n(-c2cnn(C)c2)c1=O)c1ccc(F)cc1 [Compound 98]
Giant foxtail plant response rating [1, 12]: 0
Giant foxtail plant response rating [1, 13]: 0
Giant foxtail plant response rating [1, 14]: 2
Giant foxtail plant response rating [1, 15]: 4
Giant foxtail plant response rating [1, 16]: 5
Plant response rating, Giant foxtail [1, 17]: 8
Plant response rating, Giant foxtail [1, 18]: 10
Giant foxtail plant response rating [1, 19]: 0
Plant response rating, Barley (winter) [2, 20]: 20
Plant response rating, Barley (winter) ([2]; Rate 250 g/ha, 0 to 100 scale): 10
Plant response rating, Barley (winter) [2, 21]: 30
Plant response rating, Green foxtail [3, 20]: 60
Plant response rating, Green foxtail ([3]; Rate 250 g/ha, 0 to 100 scale): 60
Plant response rating, Green foxtail [3, 21]: 65
Crabgrass plant response rating [4, 12]: 0
Crabgrass plant response rating [4, 13]: 0
Crabgrass plant response rating [4, 14]: 2
Crabgrass plant response rating [4, 15]: 2
Crabgrass plant response rating [4, 16]: 4
Plant response rating, Crabgrass [4, 17]: 7
Plant response rating, Crabgrass [4, 18]: 8
Crabgrass plant response rating [4, 19]: 0
Plant response rating, Wild oat [5, 20]: 50
Plant response rating, Wild oat [5, 21]: 50
Plant response rating, Wheat (winter) [6, 20]: 30
Plant response rating, Wheat (winter) ([6]; Rate 250 g/ha, 0 to 100 scale): 40
Plant response rating, Wheat (winter) [6, 21]: 40
Plant response rating, Blackgrass [7, 20]: 30
Plant response rating, Blackgrass ([7]; Rate 250 g/ha, 0 to 100 scale): 20
Plant response rating, Blackgrass [7, 21]: 55
Ducksalad plant response rating ([8]; Postemergence (flood test species), Rate 125 g/ha, scale of 0 to 10 where 0 is no effect and 10 is complete control): 2
Ducksalad plant response rating [8, 12]: 0
Ducksalad plant response rating ([8]; Rate 31 g/ha, Postemergence section (flood test species), scale 0 to 10): 0
Ducksalad plant response rating ([8]; flood test, listed under Postemergence, Rate 250 g/ha, scale 0 to 10, 0 no effect, 10 complete control): 3
Plant response rating, Wheat (winter) ([9]; Rate 125 g/ha, 0 to 100 scale): 30
Plant response rating, Wheat (winter) ([9]; Rate 250 g/ha, 0 to 100 scale (0 no effect, 100 complete control)): 50
Plant response rating, Wheat (winter) [9, 22]: 55
Plant response rating, I. Ryegrass [10, 20]: 50
Plant response rating, I. Ryegrass ([10]; Rate 250 g/ha, 0 to 100 scale): 50
Plant response rating, I. Ryegrass [10, 21]: 60
Wheat plant response rating [11, 12]: 0
Wheat plant response rating [11, 13]: 0
Wheat plant response rating [11, 15]: 0
Wheat plant response rating [11, 16]: 0
Wheat plant response rating (0 to 10 scale) [11, 23]: 0
Plant response rating, Wheat [11, 18]: 1
Plant response rating, Wheat [11, 24]: 0

CC1CCCCC1n1c(=O)on(C(=O)N(c2ccc(F)cc2)C(C)C)c1=O (stereo not drawn) [Compound 161]
Giant foxtail plant response rating [1, 13]: 0
Giant foxtail plant response rating [1, 25]: 4
Giant foxtail plant response rating (0 to 10 scale) [1, 26]: 9
Giant foxtail plant response rating [1, 27]: 9
Giant foxtail plant response rating [1, 28]: 10
Giant foxtail plant response rating [1, 29]: 0
Plant response rating, Giant foxtail [1, 24]: 3
Giant foxtail plant response rating [1, 30]: 7
Barley (winter) plant response rating (0 to 100 scale) ([2]; Rate 250 g/ha): 30
Plant response rating, Barley (winter) [2, 21]: 40
Plant response rating, Barley (winter) [2, 31]: 40
Green foxtail plant response rating (0 to 100 scale) ([3]; Rate 250 g/ha): 60
Plant response rating, Green foxtail [3, 21]: 70
Plant response rating, Green foxtail [3, 31]: 90
Crabgrass plant response rating [4, 13]: 2
Crabgrass plant response rating [4, 25]: 4
Crabgrass plant response rating (0 to 10 scale) [4, 26]: 8
Crabgrass plant response rating [4, 27]: 9
Crabgrass plant response rating [4, 28]: 9
Crabgrass plant response rating [4, 29]: 0
Plant response rating, Crabgrass [4, 24]: 7
Crabgrass plant response rating [4, 30]: 9
Wild oat plant response rating (0 to 100 scale) ([5]; Rate 250 g/ha): 50
Plant response rating, Wild oat [5, 21]: 50
Plant response rating, Wild oat [5, 31]: 60
Wheat (winter) plant response rating (0 to 100 scale) ([6]; Rate 250 g/ha): 10
Plant response rating, Wheat (winter) [6, 21]: 20
Plant response rating, Wheat (winter) [6, 31]: 45
Blackgrass plant response rating (0 to 100 scale) ([7]; Rate 250 g/ha): 30
Plant response rating, Blackgrass [7, 21]: 50
Plant response rating, Blackgrass [7, 31]: 55
Plant response rating, Wheat (winter) ([9]; Rate 1000 g/ha, 0 to 100 scale, 0 is no effect and 100 is complete control): 50
Plant response rating, Wheat (winter) [9, 22]: 35
Wheat (winter) plant response rating ([9]; Rate 250 g/ha, 0 to 100 scale where 0 is no effect and 100 is complete control): 30
I. Ryegrass plant response rating (0 to 100 scale) ([10]; Rate 250 g/ha): 60
Plant response rating, I. Ryegrass [10, 21]: 65
Plant response rating, I. Ryegrass [10, 31]: 85
Wheat plant response rating [11, 25]: 0
Wheat plant response rating (0 to 10 scale) [11, 23]: 0
Wheat plant response rating [11, 27]: 0
Wheat plant response rating [11, 28]: 2
Plant response rating, Wheat [11, 24]: 0
Wheat plant response rating [11, 30]: 0
